The results in this text go back to patent US20100184675A1, “USE OF GLUCAGON (1-29) ALONE OR IN COMBINATION WITH NEUROPEPTIDE W30 AS A THERAPEUTIC AGENT” (priority 2007, published 2010).

The subject of this experiment is drug-resistant Mycobacterium tuberculosis. In words: Mycobacterium tuberculosis assay. The note with it: 10 micrograms per ml; seven days; strain resistant to PAS, streptomycin, INH; combination 0.95:1.05 mole and all other molar ratios from 1:100 to 100:1. In kind it is cell-based.

Ends that are not written are not given here.

In the case of “Trp-Tyr-Lys-His-Val-Ala-Ser-Pro-Arg-Tyr-His-Thr-Val-Gly-Arg-Ala-Ala-Gly-Leu-Leu-Met-Gly-Leu-Arg-Arg-Ser-Pro-Tyr-Leu-Trp-OH (WYKHVASPRYHTVGRAAGLLMGLRRSPYLW-OH) [Peptide 2, Neuropeptide W-30, commercially available known peptide]”, the “inhibition of the growth of Mycobacterium tuberculosis” value stood at 100%.
